Experimental data: US5162339A, “Quinuclidine therapeutic agents” (Pfizer Inc., priority 1990, dated 1992)

Legend:
[1] = tested on: substance P-induced locomotion; experiment: suppression of substance P-induced hypermotility (locomotion) in rats; assay type: in vivo, rat; conditions: 32 mg./kg. dose level, intraperitoneal route
Source text: (§1) Such conditions include gastrointestinal disorders such as ulcer and colitis and other like diseases of the gastrointestinal tract, central nervous system disorders such as anxiety and psychosis, inflammatory diseases such as rheumatoid arthritis and inflammatory bowel diseases, respiratory diseases such as asthma, as well as pain in any of the aforesaid conditions, including migraine. […] A. Winter et al., Proceedings of the Society of Experimental Biology and Medicine, Vol. 111, p.
The anti-psychotic activity of the compounds of the present invention as neuroleptic agents for the control of various psychotic disorders is determined primarily by a study of their ability to suppress substance P-induced hypermotility in rats. This study is carried out by first dosing the rats with a control compound or with an appropriate test compound of the present invention, then injecting the rats with substance P by intracerebral administration via canula and thereafter measuring their individual locomotor response to said stimuli.

[2] = tested on: carrageenin-induced rat foot edema; experiment: carrageenin-induced rat foot edema test; assay type: in vivo; conditions: for % Inhibition at 32 mg./kg. (inhibition of edema formation): rats, 32 mg./kg. orally (by gavage), compared to vehicle control
Source text: as §1
In this test, anti-inflammatory activity is determined as the percent inhibition of edema formation in the hind par of male albino rats (weighing 150-190 g.) in response to a sub-plantar injection of carrageenin. The carrageenin is injected as a 1% aqueous solution. Edema formation is then assessed by measuring the volume of the injected paw initially as well as three hours after the carrageenin injection. The increase in volume three hours after carrageenin injection constitutes the individual response. Compounds are considered active if the difference in response between the drug-treated animals (six rats/group) and a control group receiving the vehicle alone is significant on comparison with the results afforded by a standard compound like phenylbutazone at 33 mg./kg., via the oral route of administration.
The following cis-[(cyclic)methylamino]-2-benzhydrylquinuclidine final products of Examples 2, 3 and 4, respectively, were tested for anti-inflammatory activity in rats, using the standard rat foot edema test, according to the general procedure described by C. A. Winter et al., as first reported in the Proceedings of the Society for Experimental Biology and Medicine, Vol. 111, p. 544 (1962).

Row | Structure (SMILES) | inhibition of substance P-induced locomotion [1] [%] | inhibition in swelling ([2]; rat, 100 mg./kg. dose level, oral route) [%] | % Inhibition at 32 mg./kg. (inhibition of edema formation) [2] [%]
1 | Clc1ccccc1CN[C@H]1C2CCN(CC2)[C@H]1C(c1ccccc1)c1ccccc1 (relative stereo) [Example 2, cis-3-[(2-chlorophenyl)methylamino]-2-benzhydrylquinuclidine] | 50 | 50 | 29
2 | FC(F)(F)c1ccccc1CN[C@H]1C2CCN(CC2)[C@H]1C(c1ccccc1)c1ccccc1 (relative stereo) [Example 3, cis-3-[(2-trifluorophenyl)methylamino]-2-benzhydrylquinuclidine] | – | – | 50
3 | COc1ccccc1CN[C@H]1C2CCN(CC2)[C@H]1C(c1ccccc1)c1ccccc1 (relative stereo) [Example 4, cis-3-[(2-methoxyphenyl)methylamino]-2-benzhydrylquinuclidine] | – | – | 38
